How the values were obtained:
[1] = system: tumour mass; details: WO/2000/06134; ALC 100 mg/kg orally; cited from earlier work
[2] = system: Human A549 NSCLC cell line; assay: Anti-tumoral activity in vivo, A549 subcutaneous tumor; parameters: species or system CD1 nude mice; details: acetyl L-carnitine 200 mg/kg po qdx5/wx4w, cisplatin 4 mg/kg ip q4dx6
Method: (§1) Anti-tumoral activity in vivo (CD1 Nude mouse) using five different tumoral cell lines.
The tumors were generated by subcutaneous injection in the right flank of CD1 nude mice of A549 tumor cells (3×10^6/100 μl/mouse) in 0.1 ml medium Tc199.
(§2) Treatments started when tumors were palpable, 8 mice per group were used.
(§3) Acetyl L-carnitine was administered po (oral administration) at 200 mg/kg according to the schedule qdx5/w (once per day for 5 days per week).
(§4) Tumor volume (TV) was calculated biweekly by measuring the diameter of the tumors with a Vernier caliper according to the formula
(§5) where d and D are the shortest and longest diameters, respectively. The efficacy of the drug treatment was assessed as the tumor volume inhibition according to the formula reported underneath: […]

[3] = system: NCI-H1650 cell line; assay: Anti-tumoral activity in vivo, NCI-H1650 subcutaneous tumor; parameters: species or system CD1 nude mice; details: acetyl L-carnitine 200 mg/kg po qdx5/wx3w; cisplatin 4 mg/kg ip q4dx6
Method: as §1
The tumors were generated by subcutaneous injection in the right flank of CD1 nude mice of NCI-H1650 tumor cells (5×10^6/200 μl/mouse) in suspension in 0.1 ml medium Tc199+0.1 ml Matrigel.
as §2, §3, §4, §5

[4] = system: NCI-H460 metastatic clone; assay: Anti-tumoral and antimetastatic activity in vivo, NCI-H460 metastatic clone; parameters: species or system CD1 nude mice; details: for antimetastatic effect on spontaneous lung metastases: NCI-H460 metastatic clone injected subcutaneously; for % inhibition of lung metastases / TVI %: acetyl L-carnitine 200 mg/kg po qdx5/wx4w, cisplatin 5 mg/kg iv q7dx4
Method: as §1
(§6) The tumors were generated by subcutaneous injection in the right flank of CD1 nude mice of NCI-H460 tumor cells (3×10^6/100 μl/mouse), in 0.1 ml medium Tc199.
as §2, §3, §4, §5

[5] = system: NCI-H460 cell line; assay: Anti-tumoral activity in vivo, NCI-H460 subcutaneous tumor; parameters: species or system CD1 nude mice; details: acetyl L-carnitine 200 mg/kg po qdx5/wx4w; cisplatin 4 mg/kg ip q4dx5
Method: as §1, §6, §2, §3, §4, §5

[6] = system: NCI-H460 non-small cell lung carcinoma; assay: Antitumor activity of L-carnitine in combination with cisplatin against NCI-H460; type: in vivo
Method: Treatments started three days after tumor injection. To evaluate the antitumor activity, tumor diameters were measured with a Vernier caliper. […] When tumors reached a volume of 1-2 cm^3, mice were sacrificed by cervical dislocation. Body weight recording was carried out through the study and mortality was noted.

[7] = system: A2780 ADR cell line; assay: Anti-tumoral activity in vivo, A2780 ADR subcutaneous tumor; parameters: species or system CD1 nude mice; details: acetyl L-carnitine 200 mg/kg po qdx5/wx3w, doxorubicin 6 mg/kg iv q7dx3
Method: as §1
The tumors were generated by subcutaneous injection in the right flank of CD1 nude mice of A2780 ADR tumor cells (5×10^6/100 μl/mouse) in 0.1 ml medium Tc199.
as §2, §3
The reference compound doxorubicin was delivered intravenously according to the schedule q7dx3, at a dose of 6 mg/kg.
as §4, §5

[8] = system: NCI-H460 NSCLC tumor cell line; assay: Anti-proliferative activity in vitro (MTT assay), NCI-H460; type: cell-based; details: 10 mM, 72 h of treatment, 0.1% FBS
Method: (§7) The anti-proliferative activity of acetyl L-carnitine was evaluated in two different NSCLC tumor cell lines (NCI-H460 and NCI-H1650) and on one ovarian tumor cell line (A2780/Dx multidrug-resistant).
(§8) Cells were seeded in 96-well tissue culture plates and treated for three days (NCI-H460 NSCLC) or six days (NCI-H1650 NSCLC and A2780/Dx cells) with acetyl L-carnitine (10 mM in 0.1% FBS). To test the effect of acetyl L-carnitine on cell growth, tumor cells were seeded in 96-well tissue culture plates at approximately 10% confluence and were allowed to attach and recover for at least 24 h. Tumor cells were exposed to treatment protocol for 72 h or 6 days in 0.1% FBS at 37° C., then medium culture (RPMI 1640) was removed and 100 μl/well of medium were added containing 25 μl/well of a solution 5 mg/ml tetrazolium salt (MTT) assay, (final 1 mg/ml). Plates were kept at 37° C. in incubator with 5% CO2 for 2 h for the formation of blue crystals. […] The cell survival was determined as optical density by a Multiskan spectrofluorimeter at 570 nm (Hansen M. B., et al., J. Immunol. Methods, 1989, 119, 203). Percentage of tumor cell inhibition in the presence of 10 mM acetyl L-carnitine was evaluated and compared with that obtained in the absence of acetyl L-carnitine applying the statistical comparison by means of the Mann-Whitney test.

[9] = system: SJSA-1 (with amplification of mdm2) osteosarcoma cells; assay: Antiproliferative activity on SJSA-1 osteosarcoma cells (MTT assay); type: cell-based
Method: The evaluation of antiproliferative activity was carried out by MTT assay.

[10] = system: NCI-H1650 NSCLC tumor cell line; assay: Anti-proliferative activity in vitro (MTT assay), NCI-H1650; type: cell-based; details: 10 mM, 6 days of treatment, 0.1% FBS
Method: as §7, §8

[11] = system: A2780/Dx multidrug-resistant ovarian tumor cell line; assay: Anti-proliferative activity in vitro (MTT assay), A2780/Dx; type: cell-based; details: 10 mM, 6 days of treatment, 0.1% FBS
Method: as §7, §8

CC(=O)O[C@H]1C(=O)[C@@]2(C)[C@H]([C@H](OC(=O)c3ccccc3)[C@]3(O)C[C@H](OC(=O)[C@H](O)[C@@H](NC(=O)c4ccccc4)c4ccccc4)C(C)=C1C3(C)C)[C@]1(OC(C)=O)CO[C@@H]1C[C@@H]2O [Paclitaxel, paclitaxel, reference compound]
inhibition of tumour growth (TVI) [1]: 88%

N.N.[Cl][Pt][Cl] [Cisplatin, cisplatin, reference compound]
TVI % [2]: 49 ± 13%
TVI % ([2]; listed as cisplatin): 49%
TVI % [3]: 23 ± 3%
antimetastatic effect on spontaneous lung metastases [4]: ineffective
% inhibition of lung metastases [4]: 0%
TVI % [4]: 41 ± 5%
TVI % ± SE [5]: 41 ± 5%
TVI % ± SE +32 ([6]; day +32, cisplatin 4 mg/kg ip q4d/wx3w, L-carnitine 200 mg/kg po qdx5/wx3w): 80 ± 21%
TVI % [7]: 60%

CC(=O)O[C@H](CC(=O)[O-])C[N+](C)(C)C [acetyl L-carnitine (ALC)]
effect on the formation of lung metastases [1]: significant inhibitory effect

CC(=O)O[C@H](CC(=O)[O-])C[N+](C)(C)C [Acetyl L-carnitine, acetyl L-carnitine]
effect on tumour growth [1]: no effect on tumour growth
TVI % [2]: 27 ± 3%
TVI % ([2]; listed as acetyl L-carnitine): 27%
TVI % [3]: 19 ± 4%
Tumor cell inhibition % ([8]; P <0.001): 32%
Absorbance ± SE at 570 nm ([8]; control 745 ± 18): 509 ± 8
Tumor cell inhibition % ([9]; 10 mM, 72 h of exposure followed by 72 h of recovery, 0.1% FBS, P 0.0037 vs control): 24%
antiproliferative activity compared with cisplatin ([9]; 72 h of exposure, medium containing 0.1% FBS): statistically significant more active than cisplatin
Tumor cell inhibition % ([10]; P <0.001): 41%
Absorbance ± SE at 570 nm ([10]; control 484 ± 25): 285 ± 11
Tumor cell inhibition % [11]: 29%
Absorbance ± SE at 570 nm ([11]; control 331 ± 18): 234 ± 16
antimetastatic effect on spontaneous lung metastases [4]: statistically significant antimetastatic effect
% inhibition of lung metastases [4]: 50%
TVI % [4]: 34 ± 5%
TVI % ± SE [5]: 40 ± 6%
TVI % [7]: 28 ± 11%
TVI % ([7]; listed as acetyl L-carnitine): 28%

C[N+](C)(C)C[C@H](O)CC(=O)[O-] [L-carnitine]
potentiation of the cytotoxic activity of cisplatin ([6]; L-carnitine 200 mg/mice/day given chronically): not able to potentiate the cytotoxic activity of cisplatin

COc1cccc2c1C(=O)c1c(O)c3c(c(O)c1C2=O)C[C@@](O)(C(=O)CO)C[C@@H]3O[C@H]1C[C@H](N)[C@H](O)[C@H](C)O1 [Doxorubicin, doxorubicin, reference compound]
TVI % [7]: 60 ± 11%

Reference: patent publication US20120208883A1, “TREATMENT OF ONCOLOGICAL DISEASES” (priority 2008, published 2012)
